For data set [1], the system named is Aβ40 levels in APOE4-TR mouse brain. Description: Acute PK/PD dose-response study in APOE4-TR mice: Aβ40 in forebrain (MSD assay). It is filed as in vivo. The conditions noted are these: for Mini AUEC (brain Aβ40): 4 h and 24 h; for Aβ40 reduction, range over doses: 3, 10 and 30 μmol/kg. Here is the method:
Male and female transgenic homozygous APOE4-TR (B6. 129P2-Apoe^tm3(APOE*4)Mae N8, Taconic, Model 001549, 3-5 months old, n=48) were obtained from Taconic.
Compound 1 was formulated as a suspension. Vehicle or compound was given by oral administration in a volume of 10 ml/kg once. Vehicle: 0.1% Tween80 in 0.5% Methylcellulose in water. […]
(§1) Frozen mouse forebrains were weighed and homogenized in 9 volumes (w/v) of ice-cold TBS-Complete (20 mM Tris-HCl pH 7.4, 137 mM NaCl, 1× Complete [Protease Inhibitor Cocktail Tablets: 1 836 145, Roche Diagnostics GmbH, Penzberg, Germany]) by sonication (90% duty cycle, output control 5, 40-55 pulses, [Sonifier 450, Branson]). After homogenization several 50 μl aliquots were prepared for analysis and were stored at −80° C.
Endogenous Aβ40 in mice was determined with the Meso Scale Discovery (MSD) 96-well MULTI-ARRAY human/rodent (4G8) Aβ40 Ultrasensitive Assay (#K110FTE-3, Meso Scale Discovery, Gaithersburg, USA). The assay was performed according to the manufacturer's instructions except for the calibration curve and the sample preparations. TritonX-100 (TX-100) soluble Aβ40 was extracted from forebrain with 1% TX-100 using a 50 μl aliquot of each 1:10 forebrain homogenate, mixed with 50 μl 2% TX-100 in TBS complete (20 mM Tris-HCl pH 7.4, 137 mM NaCl, 1× Complete [Protease Inhibitor Cocktail Tablets: 1 836 145, Roche Diagnostics GmbH, Penzberg Germany]) to reach a final concentration of 1% TX-100 and a 1:20 forebrain dilution. The samples were incubated for 15 min on ice and vortexed every 5 min. The samples were ultra-centrifuged (100000×g, 4° C., 15 min) and 50 μl of the clear supernatants were transferred to fresh tubes. For the Aβ40 assay the supernatants were further diluted 1:5 in 3% Blocker A solution (from kit) to a final forebrain dilution of 1:100 and applied to the plate.
The calibration curve was prepared in a corresponding dilution of 1% Blocker A solution spiked with synthetic Aβ1-40 peptide (1.56-100 pg/ml) except for non-transgenic mouse brain samples: In this case, the calibration curve was prepared in a correspondingly diluted APP knockout mouse forebrain spiked with synthetic Aβ1-40 peptide (1.56-100 pg/ml). For all samples and standards 25 μl were applied per well. For each determination duplicate wells were done. The mean values from the duplicate wells were used for calculations.

The next data set has as its system Aβ40. Kind of data set: Chronic treatment of APP23 mice: formic acid soluble Aβ40 in forebrain. It is filed as in vivo, mouse. The conditions noted are these: high Compound 1 treatment group. Here is the method:
as §1
Fifty microliter of forebrain homogenate was mixed with 116.6 μl 100% formic acid, resulting in a final formic acid concentration of 70%. Samples were stored on ice and vortexed every 5 minutes. For neutralization, 50 μl of the mixture were pipetted into a new tube, and 950 μl of 1 M Tris base, containing 1× Complete Protease inhibitor, was added. Tubes were stored at room temperature overnight and then centrifuged for 15 minutes at 14000 rpm in an Eppendorf Microzentrifuge at 4° C. From the top layer, 100 μl are removed and mixed with 100 μl of 3% Blocker A solution (part of the MesoScale assay kit). This sample was either directly applied to the assay plate (dilution 1:1332) or further diluted in 1% Blocker A solution.
Amyloid-β42 increased more than Aβ40 (Aβ42/40 ratio increased by 55% in the vehicle group), in agreement with its higher aggregation propensity.

A short description of data set [2]: 3-month dose-ranging safety and tolerability study. It counts as in vivo, human. To be noted: once-daily doses of 2, 10, 35 and 85 mg over three months; healthy elderly. An excerpt: This study is listed in ClinicalTrials.gov under the NCT02576639 Identifier code.
The primary purpose of this study was to expand on previous safety and tolerability data obtained over 2-week and 4-week duration in the first in human study and thereby allow initiation of future long-term efficacy trials in subjects at risk of AD and CAA. In addition, data relevant for Pharmacokinetic/Pharmacodynamic modeling was obtained in order to support dose selection decisions for future efficacy studies.

Take `C[C@@]1(c2nc(NC(=O)c3ncc(C(F)(F)F)cc3Cl)ccc2F)CO[C@@](C)(C(F)(F)F)C(N)=N1` [Compound 1, N-(6-((3R,6R)-5-amino-3,6-dimethyl-6-(trifluoromethyl)-3,6-dihydro-2H-1,4-oxazin-3-yl)-5-fluoropyridin-2-yl)-3-chloro-5-(trifluoromethyl)picolinamide]: the “% reduction vs vehicle (brain Aβ40)” value in data set [1] (3 μmol/kg acute, 4 h) came to 43%; in data set [1] (3 μmol/kg acute, 24 h), 20%; in data set [1] (10 μmol/kg acute, 4 h) it was 63%; in data set [1] (10 μmol/kg acute, 24 h), 31%; in data set [1] (30 μmol/kg acute, 4 h) it was 77%; in data set [1] (30 μmol/kg acute, 24 h), 66%. For the same compound, the “Average Aβ40 brain ± SD” value in data set [1] (3 μmol/kg acute, 4 h) came to 0.114 ± 0.024 pmol/g; in data set [1] (3 μmol/kg acute, 24 h), 0.160 ± 0.033 pmol/g; in data set [1] (10 μmol/kg acute, 4 h), 0.074 ± 0.014 pmol/g; in data set [1] (10 μmol/kg acute, 24 h) it was 0.139 ± 0.041 pmol/g; in data set [1] (30 μmol/kg acute, 4 h), 0.046 ± 0.006 pmol/g; in data set [1] (30 μmol/kg acute, 24 h), 0.068 ± 0.021 pmol/g. In addition, the “Mini AUEC (brain Aβ40)” value is recorded as 32% in data set [1] (3 μmol/kg acute), 47% in data set [1] (10 μmol/kg acute) and 72% in data set [1] (30 μmol/kg acute). Moreover, the “Aβ40 reduction, range over doses” value in data set [1] (4 h) is 43-77%; in data set [1] (24 h), 20-66%. For the same compound, the Emax in data set [1] (Mus musculus, 30 μmol/kg acute, read-out: maximal effect on Aβ reduction in the brain) was more than 70%. Moreover, the “reduction of deposited Aβ40 and 42 vs vehicle” value in the data set with Aβ40 was “around 80%”. The safety and tolerability result in data set [2] was “safe and tolerated”.

The record behind these values is patent publication US10722518B2, “Oxazine derivative for use in the treatment or prevention of cerebral amyloid angiopathy” (Novartis AG, priority 2016, dated 2020).
